Here are results for 25 compounds from PubChem BioAssay (NCI).

SMILES strings stand for the structures. Several values for one entry are separate records, joined by “and”; a condition that tells them apart may be missing. Equal values may be shown once.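 Values below derive from 48-hour exposures of cells grown in 96-well plates, with endpoints linearly interpolated between the two concentrations bracketing the appropriate inhibition level. GI50 = concentration required for 50% inhibition of growth. At the TGI there is no net growth.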

Holding throughout (assay): NCI anticancer screen, dose series, 48 h
Experiment [1] relates to M19-MEL melanoma.
The test system of experiment [2] is KM20L2 colon.
For experiment [3], the system named is XF 498 CNS.
The test system of experiment [4] is OVCAR-5 ovarian.
Experiment [5] has as its system HOP-18 NSCLC.
Experiment [6] has as its system EKVX NSCLC.
Experiment [7] concerns DU-145 prostate.
In experiment [8] the test system is PC-3 prostate.
Experiment [9] deals with T-47D breast.
Experiment [10] deals with BT-549 breast.

With `COC(=O)C(/C(=N\NC(N)=S)C(=O)Nc1ccccc1[N+](=O)[O-])c1cnc2ccccc2n1` (stereo not drawn), the TGI in experiment [1], in experiment [2], in experiment [3], in experiment [4], in [5] and in experiment [6] was over 100 µM each time.

On to `CCCCCCCCCCCCCB(O)O`, for which the TGI in [1], in experiment [2], in [3], in [4], in experiment [5] and in experiment [6] was over 100 µM each time. The GI50 in [5] was > 100 µM and 25.9 µM; in [6], > 100 µM and 45.5 µM.

As for `CCOCc1cc(=O)c2c(OC)cc3c(c2o1)CCC(C)(C)O3`, the TGI in experiment [1], in [2], in [3], in experiment [4], in experiment [5] and in experiment [6] was over 100 µM in each case.

Turning to `O=C1C2C3C=CC(C2C(=O)N1CN1CCSCC1)C1C2C(=O)N(CN4CCSCC4)C(=O)C2C31` (stereo not drawn), the GI50 in [7] is 78.4 µM. Moreover, the TGI in experiment [1] is over 100 µM; in experiment [2] it was over 100 µM; in [3], over 100 µM; in experiment [4], over 100 µM; in [5], 91.5 µM; in experiment [6] it was over 100 µM.

As to `c1ccc2c(NCCCCCCNc3cccc4ccccc34)cccc2c1`, the TGI in experiment [1], in experiment [2], in [3], in [4], in experiment [5] and in experiment [6] was over 100 µM in each case.

As for `Cc1ccc2nc(NC(=O)/C(=N\NC(=S)NN)C3C(=O)NC(=S)NC3=O)sc2c1`, the TGI in [2], in [3], in experiment [4], in experiment [5] and in [6] was over 100 µM each time.

On to `Cn1cnc([N+](=O)[O-])c1Sc1nccc(=O)[nH]1`, for which the TGI in experiment [1], in experiment [3], in experiment [4], in experiment [5] and in experiment [6] was over 100 µM in each case.

As to `CC(C)C1N2CCCCC2[C@@H]2c3[nH]c4ccccc4c3CCN12` (stereo partly drawn), the TGI in [1], in experiment [2], in [3], in experiment [4], in [5] and in experiment [6] was over 100 µM in each case.

In the case of `CCOC(=O)C(C(O)c1ccc([N+](=O)[O-])cc1)P(=O)(OCC)OCC` (stereo not drawn), the TGI in experiment [1], in [2], in experiment [3], in experiment [4], in [5] and in experiment [6] was over 100 µM in each case.

Take `CC(=O)O[C@H]1CC2C=CC3C(CCC31)O2` (stereo partly drawn): the TGI in [1], in experiment [2], in [3], in [5] and in [6] was over 100 µM in each case.

`CCN(CC)CCn1c2ccccc2c(=O)c2c(OC)ccc(OC)c21`: the TGI in [1], in experiment [2], in experiment [3], in experiment [4] and in experiment [6] was over 100 µM throughout.

For the compound `COC(=O)/C(=N\NC(N)=O)C(C(=O)C=C(C)C)C(=O)C(=O)Nc1ccc(Cl)c(Cl)c1` (stereo not drawn), the TGI in experiment [1], in experiment [2], in [3], in experiment [4], in experiment [5] and in experiment [6] was over 100 µM each time.

With `COc1ccc2nc(NC(=O)C(=O)NNC(=O)c3ccncc3)sc2c1`, the TGI in experiment [1], in [2], in [3], in experiment [5] and in experiment [6] was over 100 µM throughout.

Take `CCOP1(=O)C=C(C)C(=C(Cl)Cl)C(C)=C1` (stereo not drawn): the GI50 was 12.9 µM in [1] and 4.53 µM in experiment [2]. Also, the TGI in experiment [1] is 36.3 µM; in experiment [2] it was 6.76 µM and 65.3 µM; in experiment [3], 35.7 µM; in [5], 46.9 µM; in experiment [6], 38.3 µM.

For the compound `COC[C@H](C)N=CN1CCc2ccccc2C1(Cc1ccccc1)Cc1ccccc1`, the TGI in [2] was 24.7 µM; in experiment [3] it was 24.8 µM; in experiment [5], 24 µM; in [6], 92.6 µM.

As for `[O-]c1c2c(nn1-c1ccc(Cl)cc1)c1ccccc1c[n+]2Cc1ccccc1`, the TGI in experiment [2], in [3], in experiment [4], in experiment [5] and in experiment [6] was over 100 µM in each case.

Take `COc1cccc(NC(=O)C(=O)C2C=CCS2(=O)=O)c1` (stereo not drawn): the TGI in experiment [1], in experiment [2], in [3], in experiment [4], in experiment [5] and in experiment [6] was over 100 µM each time.

For the compound `CC1CC[P+](c2ccccc2)(c2ccccc2)CC1`, the TGI is over 100 µM in experiment [1]; over 100 µM in experiment [2]; 77.4 µM in experiment [3]; over 100 µM in experiment [4]; over 100 µM in experiment [5]; over 100 µM in experiment [6].

Turning to `O=C1C=CC2(C=C1)C[C@H](NC(=O)OCc1ccccc1)C(=O)O2`, the TGI in experiment [8] is 29.9 µM; in experiment [7] it was 85.3 µM; in experiment [9], 49.9 µM; in experiment [1], 33.7 µM; in experiment [2], 38.7 µM; in experiment [3], 32 µM. Besides, the TGI in experiment [10] stood at 32.7 µM; in experiment [4] it was 38.2 µM; in [5], 31.5 µM; in experiment [6], 23.7 µM.

Turning to `C[CH2][Sn]([CH2]C)([O]C(=O)c1ccc(OC)c(OC)c1OC)[O]C(=O)c1ccc(OC)c(OC)c1OC`, the GI50 is over 100 µM in experiment [8]; over 100 µM in experiment [7]; 12.7 µM in experiment [9]; 53.2 µM in experiment [1]; over 100 µM in experiment [2]; 34.6 µM in [3]. Moreover, the GI50 in [10] was 17.2 µM; in experiment [4], over 85.4 µM; in experiment [5], 18.7 µM; in [6], over 100 µM. Also, the TGI was over 100 µM in experiment [8]; over 100 µM in experiment [7]; 26.1 µM in experiment [9]; over 100 µM in experiment [1]; over 100 µM in [2]; over 71.5 µM in [3]. The TGI is 31.1 µM in experiment [10], over 100 µM in experiment [4], 32.7 µM in [5] and over 100 µM in [6].

`COc1ccc(-c2cc(=O)c3c(O)cc(O)cc3o2)c(OC)c1OC`: the TGI in experiment [1], in experiment [2], in experiment [3], in experiment [4] and in experiment [6] was over 100 µM each time.

`CCOC(=O)C(=O)Nc1ccccc1C(C)C`: the TGI in experiment [1], in experiment [2], in experiment [3], in [4], in experiment [5] and in [6] was over 100 µM in each case.

Turning to `C=CCN(N=O)C(=O)NCCCCC(NC(C)=O)C(=O)NCc1ccccc1` (stereo not drawn), the TGI in experiment [1], in [2], in experiment [3], in experiment [4], in experiment [5] and in experiment [6] was over 100 µM each time.

Regarding `CCOC1CC2OC(=O)C1C=C2C(=O)OC` (stereo not drawn), the TGI in [1] is over 100 µM; in experiment [2] it was over 100 µM; in experiment [3], 53.9 µM; in experiment [4], over 100 µM; in [5], over 100 µM; in experiment [6], over 100 µM.

In the case of `CCN=C(C#N)NCC`, the TGI in experiment [1], in [2], in [3], in experiment [4], in experiment [5] and in [6] was over 100 µM throughout.
